Literature values in patent US10022349B2, “Cadotril particles” (Johnson & Johnson Consumer Inc., priority 2014, dated 2018).

Tests used:
[1] = poor aqueous solubility, dissolution rate limited absorption

| SMILES | Biopharmaceutical Classification System class [1] | solubility in water (in words) | water solubility (room temperature) |
| --- | --- | --- | --- |
| CC(=O)SCC(Cc1ccccc1)C(=O)NCC(=O)OCc1ccccc1 (racemic) [Racecadotril, (RS)-benzyl N-[3-(acetylthio)-2-benzylpropanoyl]glycinate] | class II | insoluble in water | about 10 micrograms/ml |
| CC(=O)SC[C@H](Cc1ccccc1)C(=O)NCC(=O)OCc1ccccc1 [dexecadotril, N—[(R)-2-Benzyl-3-(acetylthio)propionyl]glycine benzyl ester] | – | insoluble in water | – |
| CC(=O)SC[C@@H](Cc1ccccc1)C(=O)NCC(=O)OCc1ccccc1 [ecadotril, N—[(S)-2-[(Acetylthio)methyl]-1-oxo-3-phenylpropyl]glycinebenzyl ester] | – | insoluble in water | – |
